Laboratory results: patent US20140356383A1, “ADMINISTRATION OF AN ANTI-GCC ANTIBODY-DRUG CONJUGATE AND A DNA DAMAGING AGENT IN THE TREATMENT OF CANCER” (priority 2013, published 2014)

How the values were obtained:
PHTX-21c s.c. xenograft = experiment: MLN0264 and 5-Fluorouracil in PHTX-21C s.c. xenografts (Study CPGC-11-EF01); format: in vivo, CB-17 SCID mice; conditions: for dAUC: reference vehicle
Description: (§1) Tumor volume was calculated using the formula: […]

PHTX-17c s.c. xenograft = experiment: MLN0264 and CPT-11 in PHTX-17C s.c. xenografts (Study CPGC-11-EF06); format: in vivo, CB-17 SCID mice
Description: as §1

[1] = tested on: PHTX-249 Pa s.c. xenograft; experiment: 5F9 vcMMAE and gemcitabine in PHTX-249 Pa s.c. xenografts (Study CPGC-13-EF08); format: in vivo, CB-17 SCID mice
Description: 264.4 ul stock Gemcitabine into 3135.6 ul NS.
(§2) Day D0 was the first day of treatment.
as §1
A negative dAUC is interpreted as an increase in AUC relative to the reference. It is important to evaluate not only the P value, but also the dAUC. Comparisons with significant P values, but small dAUC values, may not be of interest.

HT29 (WT / vector) cells = experiment: Direct cytotoxicity assay (WST), HT29 wild-type / vector cells; format: cell-based, human
Description: To measure each antibody's ability to bind, internalize and kill target expressing cells, cytotoxicity assays were performed. In this assay, cells were incubated with various concentrations of the unconjugated primary anti-GCC antibody and a fixed non-toxic concentration of DM1-conjugated anti-human Fc secondary antibody (indirect cytotoxicity) or with various concentrations of toxin conjugated anti-GCC mAb (direct cytotoxicity). Cell viability was measured by WST assay after 4 days incubation.
Auristatin (analog of dolastatin 10) and maytansine class toxins were evaluated as ADCs with anti-GCC mAb. These toxins are all inhibitors of microtubule polymerization, acting as anti-mitotics.
The 5F9-auristatin toxin conjugates were tested in direct cytotoxicity assays of a variety of cells which been transfected with GCC nucleic acid and selected for expression of GCC. […] As a negative control, antibody drug conjugates were also made with sc209 antibody, which is a human IgG1 monoclonal antibody raised against an unrelated target, with no reactivity to GCC.

[2] = tested on: PHTX-215 Pa primary human pancreatic tumor xenograft; experiment: Single-agent 5F9 vcMMAE in PHTX-215 Pa pancreatic xenograft; format: in vivo, mice
Excerpt: (§3) The purpose of this study was to evaluate in vivo anti-tumor activity induced by combined administration of the 5F9 vcMMAE immunoconjugate (sometimes referred to herein as “MLN0264”) and gemcitabine in mouse xenograft primary human tumor explants (PHTX models of pancreatic cancer. These models included tumor tissue from patients with wild-type and mutant KRAS. Five pancreatic PHTX were generated by Champions Oncology (Hackensack, N.J.) using their CTG platform. 2 PHTX models were developed in-house. GCC expression was evaluated in each of the 7 PHTX models using the automated IHC assay described above.
(§4) In vivo anti-tumor studies of single-agent 5F9 vcMMAE immunoconjugate was conducted in all seven of the pancreatic subcutanreous xenograft mouse models. Animals were administered vehicle, free MMAE at 0.135 mg/kg once weekly (QW), a non-GCC targeting ADC at 7.5 mg/kg QW, or 5F9 vcMMAE at 3.75 or 7.5 mg/kg QW. The results for single agent activity of the immunoconjugate in PHTX-215 Pa and PHTX-249 Pa models is shown in FIGS. 15A and 15B, respectively.

[3] = tested on: PHTX-249 Pa primary human pancreatic tumor xenograft; experiment: Single-agent 5F9 vcMMAE in PHTX-249 Pa pancreatic xenograft; format: in vivo, mice
Excerpt: as §3, §4

[4] = tested on: PHTX-21c primary human mCRC tumor xenograft; experiment: 5F9 vcMMAE single agent efficacy in PHTX-21c; format: in vivo, SCID mice; conditions: for anti-tumor activity maintained post-dosing: last dose on day 22
293 GCC#2 tumors = experiment: Efficacy study with auristatin conjugates in 293 GCC#2 tumors, q7d×4; format: in vivo, SCID mice; conditions: for T/C: treatment/control
Description: 293 GCC#2 tumor-bearing SCID mice were treated with 5F9 conjugates with vc MMAE, vcMMAF or mcMMAF at three doses in comparison with 209 conjugates of these toxins or with free toxins or vehicle control. Doses were administered iv on a q7d×4 schedule. Tumors were harvested at days 3, 7, 10, 13 and 17. […] Table 18 provides a summary of the results (TGI=tumor growth inhibition, T/C=treatment/control, TGD=tumor growth delay, CR/PR=complete response/partial response; p value=measure to judge statistical significance, NS=not significant).

[5] = tested on: CTG pancreatic PHTX models (Champions Oncology); experiment: Single-agent 5F9 vcMMAE in Champions CTG pancreatic PHTX models; format: in vivo, mice
Excerpt: as §3, §4

[6] = tested on: PHTX-215 Pa s.c. xenograft; experiment: 5F9 vcMMAE and gemcitabine in PHTX-215 Pa s.c. xenografts (Study CPGC-13-EF10); format: in vivo, CB-17 SCID mice; conditions: PHTX-215 Pa s.c. xenograft, CB-17 SCID mice, reference vehicle
Description: as §2, §1
Table 77A the annotation table for group symbols. […] A negative dAUC is interpreted as an increase in AUC relative to the reference. It is important to evaluate not only the P value, but also the dAUC. Comparisons with significant P values, but small dAUC values, may not be of interest.

PHTX-09c s.c. xenograft = experiment: 5F9 vcMMAE and CPT-11 in PHTX-09C s.c. xenografts (Study CPGC-11-EF07); conditions: for Days to 1000 mm^3 / Mean tumor volume ± S.E.M (mm3) / T/C / TGI: PHTX-09c
Description: The endpoints for each treatment group was either a) tumor volume reaches 10% body weight; or b) body weight loss of >20%. The projected tumor volume at the study initiation date was 200 mm^3.
Not greater than one day prior to dosing, all animals were weighed to the nearest gram and grouped. Dosing solutions were vortexed prior to each administration to ensure correct delivery of compound. Animals received approximately 0.1 ml doses administered I.V. using a 1 cc syringe, 25-30 gauge, ½-¾ inch in length. Animals were dosed based on an average body weight of 20 grams.
Tumor volume measurements were obtained twice per week using Vernier calipers (0.01 mm). Tumor volume was calculated using the formula:
Efficacy was evaluated in terms of % tumor growth inhibition (TGI) and tumor growth delay (TGD). TGI was assessed on an arbitrary day (when the maximum tumor volume (MTV of the control treatment group reaches the maximum allowable tumor volume), using the following formula:
TGD was assessed by calculating T−C, where T=mean time (in days) for treatment group tumors to reach a predetermined size, and where C=mean time (in days) for the control group tumors to reach a predetermined size (e.g., 1,000 mm^3).
To compare pairs of treatment groups, the following mixed-effects linear regression model was fit to the data using the maximum likelihood method:
The −2 log likelihood of the full model was compared to one without any treatment terms (reduced model) and the difference in the values was tested using a Chi-squared test. The degrees of freedom of the test were calculated as the difference between the degrees of freedom of the full model and that of the reduced model. The predicted differences in the log tumor values (Yijk−Yi0k, which can be interpreted as log10 (fold change from day 0)) were taken from the above models to calculate mean AUC values for each treatment group. A dAUC value was then calculated as:
For synergy analyses, the observed differences in the log tumor values were used to calculate AUC values for each animal. […] The AUC for the control, or vehicle, group was calculated using the predicted values from the pairwise models described above. To address the question of whether the effects of the combination treatments were synergistic, additive, or sub-additive relative to the individual treatments, the following statistics were calculated:
where Ak and Bk are the k^th animal in the individual treatment groups and ABk is the k^th animal in combination treatment group. AUCctl is the model-predicted AUC for the control group and was treated as a constant with no variability. […] The standard error of the synergy score was calculated as the square root of the sum of squared standard errors across groups A, B, and AB. The degrees of freedom were estimated using the Welch-Satterthwaite equation. P values were calculated by dividing the synergy score by its standard error and tested against a t-distribution (two-tailed) with the above-calculated degrees of freedom.

[7] = group A: MLN0264 7.5 mg/kg QW, reference vehicle

5F9 vcMMAE: 5F9 mAb conjugated to MMAE using a vc (Val-Cit) linker; average drug loading about 3.6
single agent anti-tumor activity (PHTX-21c s.c. xenograft; PHTX-21c, 3.75 mg/kg): relatively low anti-tumor activity
dAUC (PHTX-21c s.c. xenograft; group C: MLN0264 3.75 mg/kg QW): 38.5%
dAUC (PHTX-21c s.c. xenograft; group D: MLN0264 7.5 mg/kg QW): 74.0%
Days to 1000 mm^3 (PHTX-17c s.c. xenograft; PHTX-17c, ML0264 7.5 mg/kg QW): >17 days
Mean tumor volume ± S.E.M (mm3) (PHTX-17c s.c. xenograft; PHTX-17c, ML0264 7.5 mg/kg QW): 886.1 ± 187.9 mm3
T/C (PHTX-17c s.c. xenograft; PHTX-17c, ML0264 7.5 mg/kg QW): 0.49
TGI (PHTX-17c s.c. xenograft; PHTX-17c, ML0264 7.5 mg/kg QW): 51%
dAUC (PHTX-17c s.c. xenograft; [7]): 28.9%
tumor regressions (animals) ([1]; PHTX-249 Pa (Studies CPGC-13-EF05/EF08), 5F9 vcMMAE 7.5 mg/kg, gemcitabine 15 mg/kg on days 1 and 3, alone or combined): no tumor regressions
dAUC [1, 7]: 28.9%
LD 50 (HT29 (WT / vector) cells; HT29, auristatin ADCs): 0.93 nM
LD 50 (HT29 (WT / vector) cells; HT 29 WT, auristatin ADCs): 84 nM
tumor regressions (animals) ([2]; PHTX-215 Pa (KRAS wt), 7.5 mg/kg QW): 3 out of 8
tumor growth inhibition ([2]; PHTX-215 Pa, 7.5 mg/kg QW, by day 22): significantly great tumor growth inhibition (TGI) versus free MMAE
TGI, % ([2]; single agent, model PHTX-215, KRAS wild-type, QWx3, day 21): 79%
tumor growth inhibition ([3]; PHTX-249 Pa, by day 21): significant TGI versus vehicle or free MMAE
TGI, % ([3]; model PHTX-249, KRAS Mut G12D, QWx3, day 21): 47%
anti-tumor activity maintained post-dosing ([4]; 7.5 mg/kg): 7-8 weeks
anti-tumor activity maintained post-dosing ([4]; 10 mg/kg): > 15 weeks
single agent anti-tumor activity ([4]; 3.75-10 mg/kg I.V. QW×4): Moderate to strong in vivo anti-tumor activity
T/C ([4]; dose 3.75-10 mg/kg, QW, T/C=volume of tumor/control): 0.23
TGI (293 GCC#2 tumors; 75 μg/kg iv q7d×4): 54.5
T/C (293 GCC#2 tumors; 75 μg/kg iv q7d×4): 0.45
TGD (293 GCC#2 tumors; 75 μg/kg iv q7d×4, tumor growth delay): 4.4
TGI (293 GCC#2 tumors; 150 μg/kg iv q7d×4): 83.5
T/C (293 GCC#2 tumors; 150 μg/kg iv q7d×4): 0.17
TGI (293 GCC#2 tumors; 300 μg/kg iv q7d×4): 96.9
T/C (293 GCC#2 tumors; 300 μg/kg iv q7d×4): 0.03
TGI, % ([5]; model CTG-0300, KRAS Mut G12V, QWx5, day 28): 64%
TGI, % ([5]; model CTG-0301, KRAS wild-type, QWx3, day 21): 24%
TGI, % ([5]; model CTG-0302, KRAS Mut G12R, QWx3, day 21): 36%
TGI, % ([5]; model CTG-0303, KRAS wild-type, QWx5, day 38): 45%
TGI, % ([5]; model CTG-0492, KRAS Mut G12V, QWx3, day 21): 62%
dAUC (percent decrease in treatment AUC relative to reference group V, vehicle) ([6]; group A: MLN0264 3.75 mg/kg IV QW): 36.3%
dAUC (percent decrease in treatment AUC relative to reference group V, vehicle) ([6]; group B: MLN0264 7.5 mg/kg IV QW): 75.1%
single agent activity (PHTX-09c s.c. xenograft; PHTX-09c (FIGS. 8B and 8C)): strong
Days to 1000 mm^3 (PHTX-09c s.c. xenograft; ML0264 1.875 mg/kg i.v. QW ×3): >23 days
Mean tumor volume ± S.E.M (mm3) (PHTX-09c s.c. xenograft; ML0264 1.875 mg/kg i.v. QW ×3): 888.5 ± 126.2 mm3
T/C (PHTX-09c s.c. xenograft; ML0264 1.875 mg/kg i.v. QW ×3): 0.82
TGI (PHTX-09c s.c. xenograft; ML0264 1.875 mg/kg i.v. QW ×3): 18.1%
Days to 1000 mm^3 (PHTX-09c s.c. xenograft; ML0264 3.75 mg/kg i.v. QW ×3): >23 days
Mean tumor volume ± S.E.M (mm3) (PHTX-09c s.c. xenograft; ML0264 3.75 mg/kg i.v. QW ×3): 861.1 ± 155.9 mm3
T/C (PHTX-09c s.c. xenograft; ML0264 3.75 mg/kg i.v. QW ×3): 0.79
TGI (PHTX-09c s.c. xenograft; ML0264 3.75 mg/kg i.v. QW ×3): 20.6%
dAUC (PHTX-09c s.c. xenograft; Treated group A (ML0264 1.875 mg/kg) vs reference V (vehicle), percent decrease in AUC): 16.1%
dAUC (PHTX-09c s.c. xenograft; Treated group B (ML0264 3.75 mg/kg) vs reference V (vehicle)): 25.4%
